Source: ChEMBL document CHEMBL5584296, “Discovery of Novel Pyrimidine-Based Derivatives as Nav1.2 Inhibitors with Efficacy in Mouse Models of Epilepsy” (J Med Chem, 2024)

Columns and labels:
Mus musculus [1] = assay: Antiepileptic activity in MES-induced seizure male ICR mouse model assessed as protection against tonic hind limb extension at 5 mg/kg, ip measured after 30 mins relative to control; format: functional; conditions: 0.5 h
[2] = Drug concentration in male ICR mouse plasma at 10 mg/kg, ip measured after 0.5 hrs by LC-MS/MS analysis; format: ADME, organism-based
[3] = Tmax in male ICR mouse at 20 mg/kg, po measured after 24 hrs by LC-MS/MS analysis; format: ADME, organism-based; conditions: in vivo
[4] = Neurotoxicity in male ICR mouse assessed as motor impairment at 25 mg/kg, ip administered for 30 mins by rotarod test relative to control; format: toxicity, organism-based; conditions: in vivo, 0.5 h
Mus musculus [5] = assay: Antiepileptic activity in 6 Hz(32 mA)-induced seizure male C57BL mouse model assessed as protection against seizure at 50 mg/kg, ip administered for 30 mins by epilepsy test; format: functional; conditions: 0.5 h
[6] = Ratio of drug concentration in male ICR mouse brain to plasma at 10 mg/kg, ip measured after 0.5 hrs by LC-MS/MS analysis; format: ADME, organism-based; conditions: read-out: BPR
[7] = target: T1, Sodium channel protein type 5 subunit alpha (Homo sapiens, UniProt Q14524); assay: Inhibition of human Nav1.5 expressed in CHL cells assessed as test to control ratio at 1 uM by whole cell voltage clamp electrophysiological analysis; format: cell-based
T1 sequence (Q14524 whole entry): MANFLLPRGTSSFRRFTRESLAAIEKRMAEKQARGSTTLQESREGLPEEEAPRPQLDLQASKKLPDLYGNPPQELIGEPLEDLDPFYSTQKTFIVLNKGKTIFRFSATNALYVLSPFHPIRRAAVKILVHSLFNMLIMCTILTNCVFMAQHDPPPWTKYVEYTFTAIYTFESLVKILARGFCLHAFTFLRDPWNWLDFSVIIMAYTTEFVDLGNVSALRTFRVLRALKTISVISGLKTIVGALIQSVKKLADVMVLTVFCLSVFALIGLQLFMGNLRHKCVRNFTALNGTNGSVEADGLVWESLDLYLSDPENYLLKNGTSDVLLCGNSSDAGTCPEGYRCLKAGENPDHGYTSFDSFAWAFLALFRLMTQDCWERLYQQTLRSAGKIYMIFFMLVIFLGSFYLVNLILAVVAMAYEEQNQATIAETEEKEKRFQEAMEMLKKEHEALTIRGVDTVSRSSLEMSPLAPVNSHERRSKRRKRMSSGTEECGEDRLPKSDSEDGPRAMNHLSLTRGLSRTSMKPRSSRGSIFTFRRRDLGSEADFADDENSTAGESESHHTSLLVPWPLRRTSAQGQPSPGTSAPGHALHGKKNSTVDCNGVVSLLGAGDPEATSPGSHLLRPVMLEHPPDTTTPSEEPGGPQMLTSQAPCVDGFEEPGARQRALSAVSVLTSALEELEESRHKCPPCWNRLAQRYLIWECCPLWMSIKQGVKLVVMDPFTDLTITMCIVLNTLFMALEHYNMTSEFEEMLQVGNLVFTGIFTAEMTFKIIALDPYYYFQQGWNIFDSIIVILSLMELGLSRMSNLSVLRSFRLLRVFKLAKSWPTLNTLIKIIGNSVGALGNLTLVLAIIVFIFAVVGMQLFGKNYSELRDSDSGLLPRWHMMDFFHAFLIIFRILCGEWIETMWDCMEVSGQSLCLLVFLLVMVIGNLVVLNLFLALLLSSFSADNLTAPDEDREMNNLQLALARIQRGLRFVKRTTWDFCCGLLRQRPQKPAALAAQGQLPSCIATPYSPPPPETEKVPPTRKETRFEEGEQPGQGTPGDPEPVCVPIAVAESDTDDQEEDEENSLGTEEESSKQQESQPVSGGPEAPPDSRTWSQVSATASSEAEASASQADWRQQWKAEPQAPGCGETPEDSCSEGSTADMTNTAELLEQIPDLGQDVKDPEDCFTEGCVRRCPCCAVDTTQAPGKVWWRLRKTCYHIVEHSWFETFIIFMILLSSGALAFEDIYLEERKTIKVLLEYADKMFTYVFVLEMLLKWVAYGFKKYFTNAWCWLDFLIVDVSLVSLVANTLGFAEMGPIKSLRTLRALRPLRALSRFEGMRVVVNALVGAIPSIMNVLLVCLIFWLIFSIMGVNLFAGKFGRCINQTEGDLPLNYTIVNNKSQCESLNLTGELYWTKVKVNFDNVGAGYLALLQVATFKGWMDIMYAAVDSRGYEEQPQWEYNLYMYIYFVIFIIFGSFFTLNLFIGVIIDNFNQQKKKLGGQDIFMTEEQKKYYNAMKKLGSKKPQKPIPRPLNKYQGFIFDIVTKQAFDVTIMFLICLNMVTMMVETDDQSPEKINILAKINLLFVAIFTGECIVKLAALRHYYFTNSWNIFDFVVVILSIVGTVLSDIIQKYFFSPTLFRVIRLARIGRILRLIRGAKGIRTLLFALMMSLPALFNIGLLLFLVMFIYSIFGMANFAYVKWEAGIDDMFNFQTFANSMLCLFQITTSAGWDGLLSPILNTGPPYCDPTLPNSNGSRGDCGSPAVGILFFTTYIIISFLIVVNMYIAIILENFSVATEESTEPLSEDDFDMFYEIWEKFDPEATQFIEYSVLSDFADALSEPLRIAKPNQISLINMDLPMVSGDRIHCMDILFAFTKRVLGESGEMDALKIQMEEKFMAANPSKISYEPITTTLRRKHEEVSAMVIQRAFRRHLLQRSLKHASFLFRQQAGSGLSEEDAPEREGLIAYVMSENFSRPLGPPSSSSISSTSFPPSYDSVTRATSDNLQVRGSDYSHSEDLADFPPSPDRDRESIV

[8] = Drug concentration in male ICR mouse cerebrospinal fluid at 10 mg/kg, ip measured after 0.25 hrs by LC-MS/MS analysis; format: ADME, organism-based; conditions: read-out: Ct
[9] = Ratio of drug concentration in male ICR mouse brain to plasma at 20 mg/kg, po measured after 0.25 hrs by LC-MS/MS analysis; format: ADME, organism-based; conditions: read-out: BPR
[10] = target: Sodium channel protein type 8 subunit alpha (Homo sapiens) (UniProt Q9UQD0); assay: Inhibition of human Nav1.6 expressed in CHO cells assessed as test to control ratio at 1 uM by whole cell voltage clamp electrophysiological analysis; format: cell-based
[11] = Drug concentration in male ICR mouse plasma at 20 mg/kg, po measured after 0.5 hrs by LC-MS/MS analysis; format: ADME, organism-based
[12] = Cmax in male ICR mouse at 1 mg/kg, iv measured after 24 hrs by LC-MS/MS analysis; format: ADME, organism-based; conditions: in vivo
[13] = Cmax in male ICR mouse at 20 mg/kg, po measured after 24 hrs by LC-MS/MS analysis; format: ADME, organism-based; conditions: in vivo
[14] = Drug concentration in male ICR mouse brain at 10 mg/kg, ip measured after 0.25 hrs by LC-MS/MS analysis; format: ADME, organism-based; conditions: read-out: Ct
[15] = target: Sodium channel protein type 1 subunit alpha (Homo sapiens) (UniProt P35498); assay: Inhibition of human Nav1.1 expressed in HEK293 cells assessed as test to control ratio at 0.1 uM by whole cell voltage clamp electrophysiological analysis; format: cell-based
[16] = Drug concentration in male ICR mouse plasma at 10 mg/kg, ip measured after 0.25 hrs by LC-MS/MS analysis; format: ADME, organism-based
[17] = Half-life in male ICR mouse at 10 mg/kg, ip measured after 24 hrs by LC-MS/MS analysis; format: ADME, organism-based; conditions: in vivo
Mus musculus [18] = assay: Antiepileptic activity in 6 Hz(32 mA)-induced seizure male C57BL mouse model assessed as protection against seizure at 100 mg/kg, ip administered for 30 mins by epilepsy test; format: functional; conditions: 0.5 h
[19] = Neurotoxicity in male ICR mouse administered intraperitoneally for 30 mins; format: toxicity; conditions: in vivo, route ip
[20] = MRT (0 to infinity) in male ICR mouse at 1 mg/kg, iv measured after 24 hrs by LC-MS/MS analysis; format: ADME, organism-based; conditions: in vivo
[21] = Ratio of drug concentration in male ICR mouse brain to plasma at 10 mg/kg, ip measured after 0.25 hrs by LC-MS/MS analysis; format: ADME, organism-based; conditions: read-out: BPR
[22] = Bioavailability in male ICR mouse at 10 mg/kg, ip measured after 24 hrs by LC-MS/MS analysis; format: ADME, organism-based; conditions: in vivo
[23] = Drug concentration in male ICR mouse cerebrospinal fluid at 20 mg/kg, po measured after 0.25 hrs by LC-MS/MS analysis; format: ADME, organism-based; conditions: read-out: Ct
[24] = AUC (0 to infinity) in male ICR mouse at 20 mg/kg, po measured after 24 hrs by LC-MS/MS analysis; format: ADME, organism-based; conditions: in vivo
[25] = Ratio of drug concentration in male ICR mouse brain to plasma at 20 mg/kg, po measured after 0.5 hrs by LC-MS/MS analysis; format: ADME, organism-based; conditions: read-out: BPR
[26] = AUC (0 to infinity) in male ICR mouse at 1 mg/kg, iv measured after 24 hrs by LC-MS/MS analysis; format: ADME, organism-based; conditions: in vivo
[27] = target: T2, Sodium channel protein type 2 subunit alpha (Homo sapiens, UniProt Q99250); assay: Inhibition of human Nav1.2 expressed in HEK293 cells assessed as effect on steady state inactivation by measuring half activation potential at 10 uM (reference value: -65 mV); format: cell-based
Target sequence in this assay (Q99250 whole entry, looked up): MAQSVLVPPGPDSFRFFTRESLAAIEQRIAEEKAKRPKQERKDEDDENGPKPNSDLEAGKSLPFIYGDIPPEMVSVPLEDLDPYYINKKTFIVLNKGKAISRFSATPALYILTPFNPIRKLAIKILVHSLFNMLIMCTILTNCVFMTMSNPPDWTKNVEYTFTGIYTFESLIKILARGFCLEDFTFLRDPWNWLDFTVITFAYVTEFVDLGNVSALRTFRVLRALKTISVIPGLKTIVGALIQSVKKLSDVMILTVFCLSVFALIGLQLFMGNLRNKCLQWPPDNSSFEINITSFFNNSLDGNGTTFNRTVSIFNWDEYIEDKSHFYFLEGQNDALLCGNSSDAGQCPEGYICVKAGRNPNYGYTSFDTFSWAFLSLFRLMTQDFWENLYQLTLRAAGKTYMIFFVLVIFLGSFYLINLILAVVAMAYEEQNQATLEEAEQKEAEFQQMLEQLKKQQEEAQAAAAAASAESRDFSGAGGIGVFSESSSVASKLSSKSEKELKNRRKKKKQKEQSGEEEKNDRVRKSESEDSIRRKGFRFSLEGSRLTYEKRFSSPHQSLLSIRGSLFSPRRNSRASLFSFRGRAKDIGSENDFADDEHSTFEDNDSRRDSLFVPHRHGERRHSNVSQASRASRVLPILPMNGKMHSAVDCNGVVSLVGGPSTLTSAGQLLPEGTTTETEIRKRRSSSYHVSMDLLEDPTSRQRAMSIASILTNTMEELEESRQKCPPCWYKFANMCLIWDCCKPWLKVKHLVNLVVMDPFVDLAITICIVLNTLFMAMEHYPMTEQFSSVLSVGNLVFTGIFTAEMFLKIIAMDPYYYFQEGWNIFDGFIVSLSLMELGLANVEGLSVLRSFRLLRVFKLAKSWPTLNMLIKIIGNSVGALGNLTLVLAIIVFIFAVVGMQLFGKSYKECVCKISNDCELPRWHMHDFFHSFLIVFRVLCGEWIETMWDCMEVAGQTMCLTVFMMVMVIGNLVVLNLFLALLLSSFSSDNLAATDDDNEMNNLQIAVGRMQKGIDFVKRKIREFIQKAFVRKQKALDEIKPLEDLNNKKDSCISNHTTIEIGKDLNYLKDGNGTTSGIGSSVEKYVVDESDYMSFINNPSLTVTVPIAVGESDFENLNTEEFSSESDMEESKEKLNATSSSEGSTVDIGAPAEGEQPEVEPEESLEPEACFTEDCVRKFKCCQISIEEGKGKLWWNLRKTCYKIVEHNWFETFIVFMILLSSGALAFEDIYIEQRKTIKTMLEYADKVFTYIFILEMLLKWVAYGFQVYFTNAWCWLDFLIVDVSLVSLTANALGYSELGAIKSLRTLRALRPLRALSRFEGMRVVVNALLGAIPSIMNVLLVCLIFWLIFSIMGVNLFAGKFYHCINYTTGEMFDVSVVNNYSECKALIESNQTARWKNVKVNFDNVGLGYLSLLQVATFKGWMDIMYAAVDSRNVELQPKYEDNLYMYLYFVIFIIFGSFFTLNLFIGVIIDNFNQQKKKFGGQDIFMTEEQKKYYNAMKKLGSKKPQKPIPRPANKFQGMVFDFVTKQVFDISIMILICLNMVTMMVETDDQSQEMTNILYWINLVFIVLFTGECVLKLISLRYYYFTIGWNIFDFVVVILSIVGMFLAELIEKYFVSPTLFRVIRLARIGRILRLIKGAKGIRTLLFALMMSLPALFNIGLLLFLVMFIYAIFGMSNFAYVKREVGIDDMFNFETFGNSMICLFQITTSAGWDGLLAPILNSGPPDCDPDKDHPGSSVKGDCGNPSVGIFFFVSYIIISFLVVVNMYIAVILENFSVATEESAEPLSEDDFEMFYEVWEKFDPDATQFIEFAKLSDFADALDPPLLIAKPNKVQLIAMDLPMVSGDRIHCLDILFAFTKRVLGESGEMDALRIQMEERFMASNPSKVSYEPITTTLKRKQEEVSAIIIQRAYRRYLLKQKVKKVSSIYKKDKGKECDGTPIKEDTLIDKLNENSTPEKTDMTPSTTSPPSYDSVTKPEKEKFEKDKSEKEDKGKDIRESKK

[28] = target: T2, Sodium channel protein type 2 subunit alpha; assay: Inhibition of human Nav1.2 expressed in HEK293 cells at -40 mv holding potential measured after 5 mins by whole cell voltage clamp electrophysiological analysis; format: cell-based
Target sequence in this assay (Q99250 whole entry): as the sequence (Q99250 whole entry, looked up) above

[29] = target: T2, Sodium channel protein type 2 subunit alpha; assay: Inhibition of human Nav1.2 expressed in HEK293 cells assessed as test to control ratio at 1 uM measured after 5 mins by whole cell voltage clamp electrophysiological analysis; format: cell-based
Target sequence in this assay (Q99250 whole entry, looked up): as above

[30] = target: T2, Sodium channel protein type 2 subunit alpha; assay: Inhibition of human Nav1.2 expressed in HEK293 cells assessed as effect on steady state activation by measuring half activation potential at 10 uM (reference value: -33 mV); format: cell-based
Target sequence in this assay (Q99250 whole entry, looked up): as above

[31] = Neurotoxicity in male ICR mouse assessed as motor impairment at 20 mg/kg, ip administered for 30 mins by rotarod test relative to control; format: toxicity, organism-based; conditions: in vivo, 0.5 h
[32] = MRT (0 to infinity) in male ICR mouse at 10 mg/kg, ip measured after 24 hrs by LC-MS/MS analysis; format: ADME, organism-based; conditions: in vivo
[33] = Drug concentration in male ICR mouse brain at 10 mg/kg, ip measured after 0.5 hrs by LC-MS/MS analysis; format: ADME, organism-based; conditions: read-out: Ct
[34] = Half-life in male ICR mouse at 20 mg/kg, po measured after 24 hrs by LC-MS/MS analysis; format: ADME, organism-based; conditions: in vivo
[35] = Half-life in male ICR mouse at 1 mg/kg, iv measured after 24 hrs by LC-MS/MS analysis; format: ADME, organism-based; conditions: in vivo
[36] = MRT (0 to infinity) in male ICR mouse at 20 mg/kg, po measured after 24 hrs by LC-MS/MS analysis; format: ADME, organism-based; conditions: in vivo
[37] = target: T1, Sodium channel protein type 5 subunit alpha; assay: Inhibition of human Nav1.5 expressed in CHL cells assessed as test to control ratio at 0.1 uM by whole cell voltage clamp electrophysiological analysis; format: cell-based
Mus musculus [38] = assay: Antiepileptic activity in MES-induced seizure male ICR mouse model assessed as protection against tonic hind limb extension at 10 mg/kg, ip measured after 30 mins relative to control; format: functional; conditions: 0.5 h
[39] = target: T2, Sodium channel protein type 2 subunit alpha; assay: Inhibition of human Nav1.2 expressed in HEK293 cells at -120 mv holding potential measured after 5 mins by whole cell voltage clamp electrophysiological analysis; format: cell-based
Target sequence in this assay (Q99250 whole entry): as the sequence (Q99250 whole entry, looked up) above

[40] = Oral bioavailability in male ICR mouse at 20 mg/kg measured after 24 hrs by LC-MS/MS analysis; format: ADME, organism-based; conditions: in vivo
[41] = AUC (0 to infinity) in male ICR mouse at 10 mg/kg, ip measured after 24 hrs by LC-MS/MS analysis; format: ADME, organism-based; conditions: in vivo

concentration at 0.5 h [2]: 221 ng/mL
Tmax [3]: 15 min
Kp at 0.5 h [6]: 3.6
concentration at 0.25 h [8]: 11.7 ng/g
Kp at 0.25 h [9]: 3.9
T/C [10]: 0.06
concentration at 0.5 h [11]: 18.3 ng/mL
Cmax [12]: 389 ng/mL
Cmax [13]: 63.4 ng/mL
concentration at 0.25 h [14]: 1900 ng/g
T/C [15]: 0.65
concentration at 0.25 h [16]: 620 ng/mL
half-life [17]: 56.4 min
MRT inf [20]: 33.6 min
Kp at 0.25 h [21]: 3.1
bioavailability [22]: 43%
concentration at 0.25 h [23]: 22.1 ng/g
AUC(0-inf) [24]: 118 ng·h/mL
Kp at 0.5 h [25]: 3.2
AUC(0-inf) [26]: 184 ng·h/mL
V1/2 [27]: -77 mV
IC50 [28]: 0.12 µM
T/C [29]: 0.03
V1/2 [30]: -31 mV
MRT inf [32]: 51 min
concentration at 0.5 h [33]: 800 ng/g
half-life [34]: 82.8 min
half-life [35]: 31.2 min
MRT inf [36]: 130 min
IC50 [39]: 11 µM
bioavailability [40]: 3%
AUC(0-inf) [41]: 793 ng·h/mL
Structure (SMILES): COc1cccc(-c2cc(N3CCCc4ccccc4C3)nc(N)n2)c1
Activity (Mus musculus [1]): 80%
Activity [4]: 18%
Activity (Mus musculus [5]): 0%
T/C [7]: 0.06
Activity (Mus musculus [18]): 25%
TD50 at 0.5 h [19]: 26.1 mg/kg
Activity [31]: 13%
T/C [37]: 0.87
Activity (Mus musculus [38]): 88%
